Test results from PubChem BioAssay AID248 (DTP/NCI, 2004).
Where “and” joins values, the source holds several entries; their conditions need not be identical. Equal values may be shown once. Toxic doses and inconclusive results are not listed. No stated cut-off is given here; in the data, active means T/C of 150% or more; inactive means T/C below 125%.

Tested on: L1210 leukemia ip in BDF1 mice, survival T/C
Test: NCI In Vivo Anticancer Drug Screen. Data for tumor model L1210 Leukemia (intraperitoneal) in B6D2F1 (BDF1) mice
Conditions: endpoint: mean survival time, higher = longer survival
Procedure, shortened: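 Mice bearing the transplanted tumor received compound or vehicle. Survival of the treated group was divided by that of the vehicle-treated control group to give the ratio.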

[1] = dose: 100.0 mg/kg/injection, schedule: Q04DX002 (ip), vehicle: Klucel (hydroxypropylcellulose) (HPC)
[2] = dose: 200.0 mg/kg/injection, schedule: Q04DX002 (ip), vehicle: Klucel (hydroxypropylcellulose) (HPC)
[3] = dose: 400.0 mg/kg/injection, schedule: Q04DX002 (ip), vehicle: Klucel (hydroxypropylcellulose) (HPC)
[4] = dose: 200.0 mg/kg/injection, schedule: Q01DX009 (ip), vehicle: saline with Tween-80
[5] = dose: 100.0 mg/kg/injection, schedule: Q01DX001 (ip), vehicle: saline
[6] = dose: 100.0 mg/kg/injection, schedule: Q01DX001 (ip), vehicle: saline with Tween-80

Measured: T/C

O=NN(CCCl)C(=O)Nc1ccc(Cn2ccc(=O)[nH]c2=O)cc1
inactive: dose: 125.0 mg/kg/injection, schedule: Q01DX001 (ip), vehicle: carboxymethylcellulose (CMC) 107 % of control | dose: 187.0 mg/kg/injection, schedule: Q01DX001 (ip), vehicle: carboxymethylcellulose (CMC) 93 % of control
active: dose: 18.0 mg/kg/injection, schedule: Q01DX001 (ip), vehicle: carboxymethylcellulose (CMC) 164 % of control | dose: 23.0 mg/kg/injection, schedule: Q01DX001 (ip), vehicle: carboxymethylcellulose (CMC) 185 % of control | dose: 26.0 mg/kg/injection, schedule: Q01DX001 (ip), vehicle: carboxymethylcellulose (CMC) 152 % of control | dose: 31.0 mg/kg/injection, schedule: Q01DX001 (ip), vehicle: carboxymethylcellulose (CMC) 189 % of control | dose: 40.0 mg/kg/injection, schedule: Q01DX001 (ip), vehicle: carboxymethylcellulose (CMC) 178 % of control | dose: 46.0 mg/kg/injection, schedule: Q01DX001 (ip), vehicle: carboxymethylcellulose (CMC) 179 % of control | dose: 60.0 mg/kg/injection, schedule: Q01DX001 (ip), vehicle: carboxymethylcellulose (CMC) 200 % of control | dose: 62.0 mg/kg/injection, schedule: Q01DX001 (ip), vehicle: carboxymethylcellulose (CMC) 167 % of control | dose: 90.0 mg/kg/injection, schedule: Q01DX001 (ip), vehicle: carboxymethylcellulose (CMC) 207 % of control

CN(C)C(=O)c1ccc(NC(=O)N(CCCl)N=O)cc1
inactive: dose: 0.5 mg/kg/injection, schedule: Q01DX001 (ip), vehicle: other 102 % of control | dose: 1.0 mg/kg/injection, schedule: Q01DX001 (ip), vehicle: other 120 % of control | dose: 31.0 mg/kg/injection, schedule: Q01DX001 (ip), vehicle: other 88 % of control
active: dose: 2.0 mg/kg/injection, schedule: Q01DX001 (ip), vehicle: other 150 % of control | dose: 8.0 mg/kg/injection, schedule: Q01DX001 (ip), vehicle: other 182 % of control | dose: 16.0 mg/kg/injection, schedule: Q01DX001 (ip), vehicle: other 286 % of control

O=[N+]([O-])c1ccc(Oc2ccc(S(=O)(=O)c3ccc(Oc4ccc([N+](=O)[O-])cc4)c([N+](=O)[O-])c3)cc2[N+](=O)[O-])cc1
inactive: dose: 100.0 mg/kg/injection, schedule: Q01DX005 (ip), vehicle: Klucel (hydroxypropylcellulose) (HPC) 101 % of control | dose: 100.0 mg/kg/injection, schedule: Q01DX009 (ip), vehicle: Klucel (hydroxypropylcellulose) (HPC) 102 % of control | [1] 110 % of control | dose: 200.0 mg/kg/injection, schedule: Q01DX005 (ip), vehicle: Klucel (hydroxypropylcellulose) (HPC) 97 % of control | dose: 200.0 mg/kg/injection, schedule: Q01DX009 (ip), vehicle: Klucel (hydroxypropylcellulose) (HPC) 102 % of control | [2] 96 % of control | dose: 400.0 mg/kg/injection, schedule: Q01DX005 (ip), vehicle: Klucel (hydroxypropylcellulose) (HPC) 90 % of control | dose: 400.0 mg/kg/injection, schedule: Q01DX009 (ip), vehicle: Klucel (hydroxypropylcellulose) (HPC) 98 % of control | [3] 100 % of control

Cc1cc2ccccc2[n+](C)c1-c1ccccc1Br
inactive: dose: 5.0 mg/kg/injection, schedule: Q01DX001 (ip), vehicle: saline 108 % of control | dose: 10.0 mg/kg/injection, schedule: Q01DX001 (ip), vehicle: saline 95 % of control

COC(C)c1ccccc1 (stereo not drawn)
inactive: dose: 103.0 mg/kg/injection, schedule: Q01DX Z (ip), vehicle: methylcellulose (MC) 91 % of control | dose: 155.0 mg/kg/injection, schedule: Q01DX Z (ip), vehicle: methylcellulose (MC) 96 % of control | dose: 233.0 mg/kg/injection, schedule: Q01DX Z (ip), vehicle: methylcellulose (MC) 96 % of control | dose: 350.0 mg/kg/injection, schedule: Q01DX Z (ip), vehicle: methylcellulose (MC) 102 % of control

COc1ccc(C2CCCCCC2OC(=O)c2ccc([N+](=O)[O-])cc2)c(OC)c1OC (stereo not drawn)
inactive: dose: 100.0 mg/kg/injection, schedule: Q01DX001 (ip), vehicle: other 96 % of control | dose: 200.0 mg/kg/injection, schedule: Q01DX001 (ip), vehicle: other 106 % of control | dose: 400.0 mg/kg/injection, schedule: Q01DX001 (ip), vehicle: other 96 % of control

CN(C)N=Nc1ccc(C(=O)O)cc1
inactive: dose: 25.0 mg/kg/injection, schedule: Q01DX009 (ip), vehicle: saline with Tween-80 108 % of control | dose: 50.0 mg/kg/injection, schedule: Q01DX009 (ip), vehicle: saline with Tween-80 113 % of control and 120 % of control | dose: 59.0 mg/kg/injection, schedule: Q04DX003 (ip), vehicle: saline 108 % of control | dose: 88.0 mg/kg/injection, schedule: Q04DX003 (ip), vehicle: saline 113 % of control | dose: 100.0 mg/kg/injection, schedule: Q04DX003 (ip), vehicle: saline 109 % of control | dose: 133.0 mg/kg/injection, schedule: Q04DX003 (ip), vehicle: saline 119 % of control | [4] 117 % of control | dose: 400.0 mg/kg/injection, schedule: Q04DX003 (ip), vehicle: saline 105 % of control

NCc1nc2ccccc2[nH]1
inactive: dose: 50.0 mg/kg/injection, schedule: Q01DX001 (ip), vehicle: saline 101 % of control | [5] 103 % of control | dose: 200.0 mg/kg/injection, schedule: Q01DX001 (ip), vehicle: saline 95 % of control | dose: 400.0 mg/kg/injection, schedule: Q01DX001 (ip), vehicle: saline 95 % of control

CCOC(=O)c1nc(N2CCOCC2)c2ccccc2n1
inactive: [1] 104 % of control | [2] 101 % of control | [3] 95 % of control

N=C(N)SC(c1ccccc1)c1ccccc1
inactive: dose: 25.0 mg/kg/injection, schedule: Q01DX001 (ip), vehicle: Klucel (hydroxypropylcellulose) (HPC) 97 % of control | dose: 50.0 mg/kg/injection, schedule: Q01DX001 (ip), vehicle: Klucel (hydroxypropylcellulose) (HPC) 104 % of control | dose: 100.0 mg/kg/injection, schedule: Q01DX001 (ip), vehicle: Klucel (hydroxypropylcellulose) (HPC) 101 % of control | [5] 98 % of control

O=NNc1ccccn1
inactive: dose: 6.25 mg/kg/injection, schedule: Q04DX003 (ip), vehicle: saline 111 % of control | dose: 8.0 mg/kg/injection, schedule: Q01DX009 (ip), vehicle: saline 116 % of control | dose: 8.0 mg/kg/injection, schedule: Q04DX003 (ip), vehicle: saline 121 % of control and 123 % of control | dose: 12.0 mg/kg/injection, schedule: Q01DX009 (ip), vehicle: saline 106 % of control | dose: 18.0 mg/kg/injection, schedule: Q01DX009 (ip), vehicle: saline 119 % of control | dose: 50.0 mg/kg/injection, schedule: Q04DX003 (ip), vehicle: saline 114 % of control
active: dose: 12.0 mg/kg/injection, schedule: Q04DX003 (ip), vehicle: saline 156 % of control

Nc1nc(=S)c2n[nH]nc2[nH]1
inactive: [6] 94 % of control

O=C(CC(=O)Oc1ccc(Cl)cc1Cl)Oc1ccc(Cl)cc1Cl
inactive: dose: 100.0 mg/kg/injection, schedule: Q01DX009 (ip), vehicle: saline with Tween-80 93 % of control | [4] 90 % of control | dose: 400.0 mg/kg/injection, schedule: Q01DX009 (ip), vehicle: saline with Tween-80 95 % of control

CCOC(=O)CC1(C)OCC(c2ccccc2)O1 (stereo not drawn)
inactive: dose: 222.0 mg/kg/injection, schedule: Q01DX Z (ip), vehicle: saline 106 % of control | dose: 333.0 mg/kg/injection, schedule: Q01DX Z (ip), vehicle: saline 86 % of control | dose: 500.0 mg/kg/injection, schedule: Q01DX Z (ip), vehicle: saline 91 % of control

CCCCOCCOC(=O)C1OC1(C)c1ccccc1 (stereo not drawn)
inactive: dose: 100.0 mg/kg/injection, schedule: Q04DX002 (ip), vehicle: saline with Tween-80 100 % of control | dose: 200.0 mg/kg/injection, schedule: Q04DX002 (ip), vehicle: saline with Tween-80 102 % of control | dose: 400.0 mg/kg/injection, schedule: Q04DX002 (ip), vehicle: saline with Tween-80 106 % of control

CCOC1(OCC)CS(=O)(=O)C1Cl (stereo not drawn)
inactive: dose: 50.0 mg/kg/injection, schedule: Q01DX001 (ip), vehicle: saline with Tween-80 107 % of control | [6] 98 % of control | dose: 200.0 mg/kg/injection, schedule: Q01DX001 (ip), vehicle: saline with Tween-80 98 % of control

Oc1cccc2ccc3ccc4ccccc4c3c12
inactive: dose: 87.5 mg/kg/injection, schedule: Q04DX003 (ip), vehicle: Klucel (hydroxypropylcellulose) (HPC) 93 % of control | dose: 175.0 mg/kg/injection, schedule: Q04DX003 (ip), vehicle: Klucel (hydroxypropylcellulose) (HPC) 93 % of control | dose: 350.0 mg/kg/injection, schedule: Q04DX003 (ip), vehicle: Klucel (hydroxypropylcellulose) (HPC) 95 % of control

[Cl][Cd][Cl].c1ccc(N=P(c2ccccc2)(c2ccccc2)c2ccccc2)cc1
inactive: dose: 9.38 mg/kg/injection, schedule: Q01DX001 (ip), vehicle: other 105 % of control
